Laboratory results from the NIST ThermoML archive (doi:10.1021/je100353j).

Assay: xn = mol fraction of the nth substance listed
Settings: Liquid

COC(=O)OC [dimethyl carbonate] + C1CCCCC1
mass density [kg/m3]
Settings	x1 = 0.1	x1 = 0.2	x1 = 0.3	x1 = 0.4	x1 = 0.5	x1 = 0.6	x1 = 0.7	x1 = 0.8	x1 = 0.9	x1 = 1
303.15 K, 20000 kPa	804.5	825.3	849.5	873.8	901.2	930.3	964.1	997.1	1035	1074.7
303.15 K, 30000 kPa	812.1	833.4	857.9	882.3	909.9	939.1	972.8	1005.8	1043.6	1082.9
303.15 K, 40000 kPa	819	840.7	865.4	890.1	917.8	947.2	980.9	1013.8	1051.4	1090.4
308.15 K, 100 kPa	781.2	801.4	824.4	847.9	874.8	903.4	936.9	969.7	1008.6	1049.8
308.15 K, 5000 kPa	786.1	806.5	829.7	853.4	880.3	908.9	942.3	975.1	1013.7	1054.6
308.15 K, 10000 kPa	790.8	811.4	834.8	858.6	885.6	914.2	947.7	980.4	1018.8	1059.4
308.15 K, 20000 kPa	799.5	820.5	844.2	868.3	895.5	924.2	957.6	990.2	1028.4	1068.5
308.15 K, 30000 kPa	807.4	828.7	852.8	877.1	904.4	–	–	–	–	–
